Assay results published in publication PMC12162873, “Modulating phosphatase DUSP22 with BML-260 ameliorates skeletal muscle wasting via Akt independent JNK-FOXO3a repression” (EMBO Molecular Medicine, 2025).
“And” between values parts separate entries of the source, which are not always exact repeats. Identical values can stand only once.

Tests used:
C57BL/6J mice = experiment: Dex treatment mouse model of skeletal muscle atrophy, BML-260 treatment; format: in vivo; conditions: TA muscle of C57BL/6 mice treated with Dex, Vehicle average = 1, n = 4
[1] = tested on: TA muscle of C57BL/6 mice; experiment: Whole genome RNA-Seq of TA muscle of geriatric mice; format: in vivo, mouse; conditions: 5 mg/kg IP every 24 h for 4 weeks
Description: Figure 8 Whole genome RNA Seq analysis of DUSP22 pharmacological targeting in geriatric mouse TA muscle. (A) Principal component analysis of gene expression variance in the vehicle treated (Con) and BML-260 treated groups (n = 3). (B) Volcano plot of differentially expressed genes. Selected genes linked to FOXO3a signaling are indicated. (C) Expression analysis of genes related to FOXO3a signaling measured by overall TPM fold change. The control was set as the baseline value of 1. A value of 2 would indicate a 2-fold increase, and 0.5 would indicates a 2-fold decrease. (D) Expression of selected genes linked to FOXO3a signaling as normalized counts from the raw read. (E) Expression of the exercise-induced myokine musclin (Ostn). (F) Gene ontology (GO) analysis of the […] muscle cell differentiation and muscle fiber development. Also shown are Six1 and Six4 (which specify fast twitch myofiber development), Ostn and fast myosin (MYH4; the predominant myosin type in the fast-twitch TA muscle). Box plots represent the distribution of Fbxo32, Trim63, Fbxo30, Gadd45a, Ctsl, Bnip3, Ostn expression levels. The center line indicates the median (50th percentile, Q2), representing the middle value of the dataset. The box bounds correspond to the interquartile range (IQR), extending from the 25th percentile (Q1, lower bound) to the 75th percentile (Q3, upper bound). Whiskers extend to the smallest and largest values within 1.5 × IQR from Q1 and Q3, representing the minimum (lower whisker) and maximum (upper whisker) values within this range. […] Error bars represent the standard error of the mean (SEM). Source data are available online for this figure.
RNA samples were harvested from the TA muscles of 24–26-month-old male C57BL/6 mice treated as follows: (1) vehicle alone (5% DMSO + 5% tween 80) and (2) 5 mg/kg BML-260. Mice were treated by IP delivery every 24 h for 4 weeks (n = 3 per group). RNA-Seq was provided by Macrogen, Republic of Korea. Prior to the commencement of sequencing, QC was carried out using FastQC v0.11.7 (http://www.bioinformatics.babraham.ac.uk/projects/fastqc/). Illumina paired ends or single ends in the sequenced samples were trimmed using Trimmomatic 0.38 with various parameters (http://www.usadellab.org/cms/?page=trimmomatic). The sequences of the samples were mapped and analyzed using HISAT2 version 2.1,0, Bowtie2 2.3.4.1 (https://ccb.jhu.edu/software/hisat2/index.shtml). Potential transcripts and multiple splice variants were assembled using StringTie version 2.1.3b (https://ccb.jhu.edu/software/stringtie/). The normalized sample counts were generated using DESeq2, which was also used for normalization, visualization, and differential analysis. PCA was performed using normalized sample counts. The “apeglm” type was used to calculate shrink log2 fold changes.

[2] = tested on: 24-26-month-old male C57BL/6 mice; experiment: Skeletal muscle aging model, BML-260 treatment; format: in vivo, mouse; parameters: Area / Feret / Feret, Average / Area, Average: unit not given here; conditions: for Area / Feret: listed as BML
Protocol: To assess DUSP22 pharmacological targeting, BML-260 was treated to 24–26-month-old male C57BL/6 mice as follows: (1) vehicle alone (5% DMSO + 5% tween 80) and (2) 5 mg/kg BML-260 (n = 5 per group). Mice were treated via IP delivery every 24 h for 4 weeks and then assessed for skeletal muscle function and condition.
Grip strength was measured using the BIO-GS3 device (Bioseb, FL, USA). Mice were placed onto the grid with all four paws attached and gently pulled backwards to measure the grip strength until the grid was released. The maximum grip value, used to represent muscle force, was calculated using 3 trials with an interval of 30 s.
Muscle fatigue was measured the previously described protocol (Chiu et al, [2018]), with two different models using the Rotarod. One was the constant model and the other was the accelerating model that is inherent in the rotarod device. In brief, the mice were accommodated to training before the commencement of the fatigue task using an accelerating rotarod (Ugo Basile, Italy). The mice were trained at a constant speed of 13 rpm for 15 min. After a recovery period of 15 min, the mice were placed on the rotarod adjusted to accelerate from 13 to 25 rpm in 3 min for 15 min. 24 h later, the muscle fatigue test was carried out with speeds ramping from 13 to 25 rpm in 3 min, and maintained at 25 rpm for a 30 min interval. Latency to fall off the rotarod was measured for each mouse. A fatigued mouse was classified as falling off 4 times within a 1 min period, which also terminated the test.
Mice were anesthetized using ketamine (22 mg/kg; Yuhan, Republic of Korea) and xylazine (10 mg/kg; Bayer, Republic of Korea) in saline by IP injection. The quadriceps, gastrocnemius, soleus and TA muscles were then dissected and weighed. For histological analysis, the muscles were fixed by overnight incubation with 4% paraformaldehyde in PBS pH 7.4 at 4 °C. Paraffin sectioning and H&E staining were provided by the Animal Housing Facility, Gwangju Institute of Science and Technology, Republic of Korea (5 µm muscle sections using a Thermo Scientific HistoStar (Thermofisher). H&E staining was carried out with a kit (Merck, Germany)). For immunohistochemistry, TA muscle sections were permeabilized for 15 min (PBS with 0.5% Triton X-100), blocked for 1 h (5% BSA) and incubated with the primary antibody overnight at 4 °C (a list of primary and secondary antibodies used in this study are provided in Appendix Tables S4 and S5, respectively). After washing with PBS 3 times for 5 min, the sections were incubated with the secondary antibody at RT for 1 h. The nuclei were counterstained with DAPI in ProLong™ Gold Antifade Mountant (Invitrogen, P36935). Digital images were acquired with Leica DM 2500 (Leica Microsystems). Cross sectional area (CSA) and fiber size distribution was measured using the NIH imaging software Image J 64. To CSA and size distribution of different fiber types was calculated in 4 muscle section as follows: type 2 A: 30–40 fibers measured; type 2B: at least 100 fibers measured; type 2X: 30–40 fibers measured.

[3] = 5 mg/kg IP every 24 h for 4 weeks
[4] = S10.B, group average of 3 animals
[5] = S10.B, individual measurements, animal BML 1
[6] = S10.B, mean per animal (BML 1, BML4, BML5)

With C[C@@H]1C[C@H]2[C@@H]3CCC4=CC(=O)C=C[C@]4(C)[C@@]3(F)[C@@H](O)C[C@]2(C)[C@@]1(O)C(=O)CO [Dex, dexamethasone] the “DUSP22 expression, qPCR, Average” value (C57BL/6J mice) was 1.655.
O=C(O)c1ccc(N2C(=O)C(=Cc3ccccc3)SC2=S)cc1 (stereo in doubt) [BML-260] was tested, and the “expression of Six1 and Six4” value [1] was “upregulated”, the “expression of fast myosin (MYH4)” value [1] was “increased” and the “expression of musclin (OSTN)” value [1] was “upregulated”. The “genes linked to FOXO3a signaling (including atrogin-1 and MuRF-1)” value [1] was “downregulated”, the “genes linked to the PI3K-Akt pathway” value [1] was “downregulated” and the “number of differentially expressed genes (DEGs)” value ([1]; versus vehicle) was 350. For the same molecule, the “CSA and Feret's diameter of type 2A, 2B and 2X myofibers, TA and gastrocnemius” value [2, 3] was “increased”, the “DUSP22 levels in the TA muscle, western blot” value [2, 3] was “reduced DUSP22 levels” and the body weight [2, 3] was “not significantly affected”. The “expression of PGC-1α, qPCR” value [2, 3] was “increased”, the “expression of atrogin-1 and MuRF-1 in the TA muscle, qPCR” value [2, 3] was “reduced” and the “expression of myostatin, qPCR” value [2, 3] was “reduced”. For the same molecule, the “grip strength mean value” [2, 3] was “increased by BML-260 treatment but did not reach statistical significance”, the “latency to fall in the rotarod test” value [2, 3] was “statistically increased” and the “mass of quadriceps, gastrocnemius, TA and soleus muscles” value [2, 3] was “increased the mean mass value of the quadriceps, gastrocnemius, TA and soleus muscles, and reached statistical significance for the TA and gastrocnemius muscles”. The “proportion of slow type 1 myofibers” value [2, 3] was “did not significantly affect”, the “Area, Average” value [2, 4] was 2003.72 and the “Feret, Average” value [2, 4] was 60.0894. The Area [2, 5] was 2289.78 and 2476.44 and 2826.67 and 1960.89 and 2172.44 and 1594.67 and 2152.89 and 2090.67 and 1617.78 and 2085.33 and 2567.11, the Feret [2, 5] was 75.248 and 68.56 and 66.573 and 63.175 and 60.296 and 56.506 and 57.366 and 56.056 and 52.173 and 66.306 and 72.271 and the Area [2, 6] was 2166.79 and 2165.89 and 1678.47. The Feret [2, 6] was 63.1391 and 63.015 and 54.114, the “DUSP22 expression, western blot quantification, Average” value ([2]; TA of aged mice (Fig EV4A), Young average = 1) was 0.2806 and the “DUSP22 expression, western blot quantification” value ([2]; TA of aged mice (Fig EV4A), Young average = 1, individual animals) was 0.2303 and 0.3985 and 0.213. The “increase of grip strength” value ([2]; aged skeletal muscle) was over 20%.
